Measured values taken from patent US20110059081A1, “METHODS AND COMPOSITIONS FOR THE TREATMENT OF RECEPTOR TYROSINE KINASE MEDIATED DISEASES OR DISORDERS” (QUINTILES TRANSNATIONAL CORP., priority 2009, published 2011).

Columns and labels:
Format in all cases: cell-based
MAPK signaling (pErk1/2) = assay: Western blot of pErk1/2 (MAPK signaling) in A549 cells treated with Methotrexate, with or without EGF; settings: as little as 1.0 μM for 24 hours, then serum starvation 48 hours, with or without 10 ng/ml EGF for final 10 minutes (FIG. 3)
Protocol: Additionally, in vitro cell signaling studies were conduced to examine MAPK signaling in RAS mutant cells treated with Methotrexate. For Methotrexate treatments, A549 lung tumor cells were treated with 1.0 or 10.0 μM Methotrexate in full serum media for 24 hours followed by withdrawal of Methotrexate and serum starvation (1.0% FBS) for 48 hours in the absence or presence of 10 ng/ml EGF added for the final 10 minutes before harvest of the cells. Next, whole cell extracts were isolated for Western blot analysis of pErk1/2 and pAkt. The presence of β-actin served as an internal control for loading differences between lanes.

[1] = test system: MAPK signaling (pAKT, pErk1/2); assay: Western blot of pAKT and pErk1/2 in KRAS mutant A549 cells treated with EGF, Methotrexate, C225 or combination
Protocol: For Methotrexate treatments, A549 lung tumor cells were treated with 1.0 μM Methotrexate in full serum media for 24 hours followed by withdrawal of Methotrexate and serum starvation (1.0% FBS) for 48 hours in the absence or presence of 5 ng/ml EGF added for the final 10 minutes before harvest of the cells.

mutant Ras = assay: Immunocytochemistry staining for RAS in A549 lung tumor cells; settings: A549 lung tumor cell line, 1.0 micromolar, 48 hours
Protocol: In an exemplary method, the A549 lung tumor cell line was treated for 48 hours with 1.0 micromolar Methotrexate followed by immunocytochemistry staining for RAS on slides.

Compound	basal and EGF-induced pErk1/2 levels (MAPK signaling (pErk1/2))	inhibition of pErk1/2 ([1]; EGF stimulation (5 ng/ml), agent alone: 1.0 μM Methotrexate or C225 up to 25 μg/ml)	amount of detectable pAKT and pErk1/2 ([1]; agent by itself (FIG. 4))	overall abundance of mutant Ras (mutant Ras; vs untreated cells (FIGS. 1 and 2))	localization of mutant Ras (mutant Ras; vs untreated cells (diffuse and at the membrane))	activation of the MAPK pathway (pErk1/2 induction) ([1]; EGF stimulation 5 ng/ml for final 10 minutes)
CN(Cc1cnc2nc(N)nc(N)c2n1)c1ccc(C(=O)N[C@@H](CCC(=O)O)C(=O)O)cc1 [Methotrexate]	reduced both basal and EGF-induce pErk1/2 levels	only slightly inhibited	slight reduction	diminished	mislocalization from the plasma membrane resulting in highly cytoplasmic staining of mutant Ras	–
EGF: epidermal growth factor used to stimulate A549 cells (NSDSECPLSHDGYCLHDGVCMYIEALDKYACNCVVGYIGERCQYRDLKWWELR; Epidermal growth factor; UniProt P01133 971-1023, looked up)	–	–	–	–	–	potently activated
